Experiments:
Conditions in all cases: treatment: drug alone; 5 days
[1] = test system: 769-P; test: GI50, drug alone; higher = less potent
Description: (§1)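 Primary HTS: 8 RCC cell lines treated with 8 doses (up to 10 uM) of each library drug alone for 5 days; viability read by CellTiter-Glo and normalised to DMSO. GI50 was fitted with XLfit (4-parameter), AUC is the area under the dose-response curve, and minimum viability is the lowest fraction of DMSO viability across doses.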

[2] = test system: 786-O; test: GI50, drug alone; higher = less potent
Description: as §1

[3] = test system: A498; test: GI50, drug alone; higher = less potent
Description: as §1

[4] = test system: ACHN; test: GI50, drug alone; higher = less potent
Description: as §1

[5] = test system: CAKI-1; test: GI50, drug alone; higher = less potent
Description: as §1

[6] = test system: SN12C; test: GI50, drug alone; higher = less potent
Description: as §1

[7] = test system: TK-10; test: GI50, drug alone; higher = less potent
Description: as §1

[8] = test system: UO-31; test: GI50, drug alone; higher = less potent
Description: as §1

[9] = test system: 769-P; test: minimum viability across doses, drug alone, relative to DMSO (fraction); higher = less growth inhibition
Description: as §1

[10] = test system: 786-O; test: as above
Description: as §1

[11] = test system: A498; test: as above
Description: as §1

[12] = test system: ACHN; test: as above
Description: as §1

[13] = test system: CAKI-1; test: as above
Description: as §1

[14] = test system: SN12C; test: as above
Description: as §1

[15] = test system: TK-10; test: as above
Description: as §1

[16] = test system: UO-31; test: as above
Description: as §1

[17] = test system: 769-P; test: AUC of dose-response viability curve, drug alone (arbitrary (AUC of normalised viability)); higher = less growth inhibition
Description: as §1

[18] = test system: 786-O; test: as above
Description: as §1

[19] = test system: A498; test: as above
Description: as §1

[20] = test system: ACHN; test: as above
Description: as §1

[21] = test system: CAKI-1; test: as above
Description: as §1

[22] = test system: SN12C; test: as above
Description: as §1

[23] = test system: TK-10; test: as above
Description: as §1

[24] = test system: UO-31; test: as above
Description: as §1

Row | Structure (SMILES) | GI50, drug alone [1] [µM] | GI50, drug alone [2] [µM] | GI50, drug alone [3] [µM] | GI50, drug alone [4] [µM] | GI50, drug alone [5] [µM] | GI50, drug alone [6] [µM] | GI50, drug alone [7] [µM] | GI50, drug alone [8] [µM] | minimum viability across doses [9] | minimum viability across doses [10] | minimum viability across doses [11] | minimum viability across doses [12] | minimum viability across doses [13] | minimum viability across doses [14] | minimum viability across doses [15] | minimum viability across doses [16] | AUC of dose-response viability curve [17] | AUC of dose-response viability curve [18] | AUC of dose-response viability curve [19] | AUC of dose-response viability curve [20] | AUC of dose-response viability curve [21] | AUC of dose-response viability curve [22] | AUC of dose-response viability curve [23] | AUC of dose-response viability curve [24]
1 | COc1ccc2c(Oc3ccc(NC(=O)c4c(C)n(CC(C)(C)O)n(-c5ccccc5)c4=O)nc3)ccnc2c1 [AMG458] | > 10 | 4.55 | > 10 | 4.79 | 8.65 | > 10 | > 10 | > 10 | 0.971 | 0.25 | 0.859 | 0.262 | 0.449 | 0.71 | 0.66 | 0.597 | 3.55 | 2.82 | 3.66 | 3.03 | 3.32 | 3.13 | 3.29 | 3.98
2 | Nc1nc(Nc2ccc(S(N)(=O)=O)cc2)nn1C(=O)c1c(F)cccc1F | > 10 | 0.465 | > 10 | 2.4 | 4.58 | 4.89 | > 10 | 2.8 | 0.0485 | 0.00276 | 0.559 | 0.0118 | 0.0615 | 0.203 | 0.573 | 0.00913 | 3.08 | 1.8 | 3.39 | 2.85 | 3.13 | 2.99 | 2.77 | 3.19
3 | CC(C)(C)c1cnc(CSc2cnc(NC(=O)C3CCNCC3)s2)o1 | 1.44 | 0.134 | 0.147 | 0.258 | 0.558 | 0.149 | 0.501 | 0.269 | 0.0214 | 0.0038 | 0.00845 | 0.00527 | 0.0689 | 0.012 | 0.156 | 0.0096 | 2.51 | 1.5 | 1.58 | 1.76 | 2.39 | 1.69 | 2.22 | 1.87
4 | NC(=O)Nc1cc(-c2cccc(F)c2)sc1C(=O)N[C@H]1CCCNC1 [AZD7762] | 0.175 | 0.034 | 0.308 | 0.0173 | 0.156 | 0.408 | 0.0685 | 0.0818 | 0.0526 | 0.00636 | 0.0492 | 0.0318 | 0.00629 | 0.00737 | 0.0208 | 0.00565 | 1.82 | 1.1 | 2.53 | 0.873 | 1.78 | 2.07 | 1.39 | 2.1
5 | CC(=O)Nc1cccc(-n2c(=O)n(C3CC3)c(=O)c3c(Nc4ccc(I)cc4F)n(C)c(=O)c(C)c32)c1 | 0.567 | 0.0587 | > 10 | 0.215 | 0.228 | 1.62 | 0.118 | 4.61 | 0.257 | 0.332 | 0.735 | 0.312 | 0.201 | 0.405 | 0.289 | 0.382 | 2.26 | 1.76 | 3.29 | 1.81 | 1.93 | 2.39 | 1.67 | 3.28
6 | NC(=O)Nc1sc(-c2ccc(F)cc2)cc1C(N)=O [TPCA-1] | > 10 | 4.89 | > 10 | 1.29 | 1.45 | > 10 | 1.78 | > 10 | 0.355 | 0.189 | 1.1 | 0.201 | 0.117 | 0.544 | 0.178 | 0.627 | 3.16 | 2.54 | 4.38 | 2.57 | 2.67 | 3.24 | 2.53 | 3.64
7 | O=C(O)c1ccc2c(c1)nc(Nc1cccc(Cl)c1)c1ccncc12 [cx-4945 (Silmitasertib)] | > 10 | 5.23 | > 10 | 8.87 | 3.97 | > 10 | > 10 | > 10 | 0.679 | 0.259 | 0.956 | 0.238 | 0.0814 | 0.681 | 0.634 | 0.541 | 3.12 | 2.33 | 4.21 | 3.2 | 3.07 | 3.06 | 3.01 | 4.43
8 | Nc1ncnc2c1c(-c1cnc3[nH]ccc3c1)nn2C1CCCC1 [PP-121] | 1.35 | 0.429 | 2.73 | 0.455 | 0.583 | 1.04 | 0.415 | 1.53 | 0.0337 | 0.00427 | 0.0928 | 0.0162 | 0.00982 | 0.0559 | 0.0113 | 0.0162 | 2.53 | 2.13 | 3.11 | 2.23 | 2.37 | 2.54 | 2.1 | 3.41
9 | Cc1ccc(F)c(NC(=O)Nc2ccc(-c3cccc4[nH]nc(N)c34)cc2)c1 [Linifanib (ABT-869)] | > 10 | 9.4 | > 10 | 7.46 | 9.96 | 6.98 | 5.72 | > 10 | 0.503 | 0.472 | 0.672 | 0.279 | 0.497 | 0.242 | 0.309 | 1.08 | 3.21 | 3.03 | 3.32 | 3.34 | 3.49 | 3.28 | 2.99 | 4.69
10 | Cn1cc(-c2ccc3ncc(Cc4ccc5ncccc5c4)n3n2)cn1 [NVP-BVU972] | > 10 | 0.589 | 2.53 | 1.32 | 1.17 | 1.4 | 1.3 | 1.4 | 0.0466 | 0.00923 | 0.0174 | 0.0166 | 0.0623 | 0.0229 | 0.12 | 0.018 | 3.07 | 2.24 | 3.94 | 2.78 | 2.77 | 2.75 | 2.58 | 4.11
11 | C=CC(=O)Nc1cc2c(Nc3ccc(F)c(Cl)c3)ncnc2cc1OCCCN1CCOCC1 [CI-1033 (Canertinib)] | 1 | > 10 | 8.55 | 0.532 | 5.53 | 5.22 | 0.626 | > 10 | 0.344 | 0.487 | 0.141 | 0.158 | 0.382 | 0.104 | 0.156 | 0.557 | 2.24 | 2.52 | 3.62 | 2.09 | 2.8 | 2.52 | 2.11 | 3.48
12 | C[C@@H]1COC(Nc2ccc3ncnc(Nc4ccc(OCc5nccs5)c(Cl)c4)c3c2)=N1 | 4.05 | > 10 | > 10 | 1.88 | 9.75 | > 10 | 2.21 | > 10 | 0.431 | 0.5 | 1.1 | 0.433 | 0.478 | 0.76 | 0.369 | 0.919 | 2.72 | 2.6 | 4.91 | 2.8 | 3.13 | 3.25 | 2.46 | 4.74
13 | O=C(Nc1cc(C(F)(F)F)cc(C(F)(F)F)c1)c1cc(Cl)ccc1O [IMD 0354] | 1.29 | 0.412 | 1.59 | 0.943 | 1.08 | 1.35 | 1.22 | 2.96 | 0.0108 | 0.00771 | 0.0128 | 0.00484 | 0.036 | 0.00716 | 0.0653 | 0.019 | 2.71 | 2.03 | 3.46 | 2.4 | 2.8 | 2.67 | 2.4 | 4.73
14 | CN(C)C1CCN(C(=O)c2ccc(NC(=O)Nc3ccc(-c4nc(N5CCOCC5)nc(N5CCOCC5)n4)cc3)cc2)CC1 | 5.33 | 0.13 | 0.0932 | 0.99 | 1.18 | 0.05 | 0.472 | 0.451 | 0.162 | 0.111 | 0.162 | 0.167 | 0.0321 | 0.112 | 0.133 | 0.0116 | 3.1 | 1.73 | 1.83 | 2.66 | 2.56 | 1.39 | 2.09 | 2.48
15 | CC1(COc2ccc3c(c2)ncn3-c2ccc3cccc(N4CCC(N)CC4)c3n2)COC1 | 5.05 | 0.538 | 3.47 | 2.73 | 3.2 | 2.19 | 4.88 | 1.37 | 0.283 | 0.00547 | 0.0171 | 0.0169 | 0.319 | 0.0442 | 0.16 | 0.0124 | 2.25 | 1.83 | 3.5 | 2.98 | 2.69 | 2.58 | 2.88 | 2.67
16 | COc1cc2ncnc(Nc3ccc(O)c(Br)c3)c2cc1OC [WHI-P154] | > 10 | > 10 | > 10 | 1.51 | 6.6 | > 10 | 2.48 | > 10 | 0.553 | 0.594 | 0.955 | 0.27 | 0.351 | 0.789 | 0.435 | 1.1 | 3.27 | 3.09 | 5.3 | 2.49 | 3.22 | 3.48 | 2.33 | 6.61
17 | CC1CCN(C(=O)CC#N)C[C@@H]1N(C)c1ncnc2[nH]ccc12.O=C(O)CC(O)(CC(=O)O)C(=O)O (stereo in doubt) | > 10 | > 10 | > 10 | > 10 | > 10 | > 10 | > 10 | > 10 | 0.938 | 0.614 | 0.817 | 0.771 | 0.918 | 0.854 | 0.797 | 0.897 | 3.66 | 2.72 | 3.54 | 3.18 | 3.73 | 3.23 | 3.16 | 4.05
18 | Cl.Cl.Fc1cc(-c2cccc3ncc(-c4cnn(C5CCNCC5)c4)nc23)cc(F)c1CN1CCOCC1 [NVP-BSK805] | 5.73 | 3.95 | 7.77 | 1.6 | 2.39 | 7.39 | 3.4 | 8.51 | 0.0465 | 0.00287 | 0.0305 | 0.0296 | 0.0193 | 0.331 | 0.212 | 0.00823 | 3.09 | 2.23 | 3.8 | 2.62 | 2.74 | 2.87 | 2.63 | 4.15
19 | C#Cc1cccc(Nc2ncnc3cc(OCCOC)c(OCCOC)cc23)c1.Cl [Erlotinib HCl] | 3.68 | > 10 | > 10 | 1.04 | 3.61 | > 10 | 5.25 | > 10 | 0.39 | 0.549 | 0.915 | 0.137 | 0.183 | 0.731 | 0.471 | 0.961 | 2.66 | 3.37 | 3.55 | 2.43 | 2.99 | 3.46 | 2.59 | 3.8
